Results as given in US8846947B2, “Benzimidazoles and related analogs as sirtuin modulators” (GlaxoSmithKline LLC, priority 2008, dated 2014).

Target: T1, SIRT1 (Homo sapiens, UniProt Q96EB6)
T1 sequence (Q96EB6 1-747): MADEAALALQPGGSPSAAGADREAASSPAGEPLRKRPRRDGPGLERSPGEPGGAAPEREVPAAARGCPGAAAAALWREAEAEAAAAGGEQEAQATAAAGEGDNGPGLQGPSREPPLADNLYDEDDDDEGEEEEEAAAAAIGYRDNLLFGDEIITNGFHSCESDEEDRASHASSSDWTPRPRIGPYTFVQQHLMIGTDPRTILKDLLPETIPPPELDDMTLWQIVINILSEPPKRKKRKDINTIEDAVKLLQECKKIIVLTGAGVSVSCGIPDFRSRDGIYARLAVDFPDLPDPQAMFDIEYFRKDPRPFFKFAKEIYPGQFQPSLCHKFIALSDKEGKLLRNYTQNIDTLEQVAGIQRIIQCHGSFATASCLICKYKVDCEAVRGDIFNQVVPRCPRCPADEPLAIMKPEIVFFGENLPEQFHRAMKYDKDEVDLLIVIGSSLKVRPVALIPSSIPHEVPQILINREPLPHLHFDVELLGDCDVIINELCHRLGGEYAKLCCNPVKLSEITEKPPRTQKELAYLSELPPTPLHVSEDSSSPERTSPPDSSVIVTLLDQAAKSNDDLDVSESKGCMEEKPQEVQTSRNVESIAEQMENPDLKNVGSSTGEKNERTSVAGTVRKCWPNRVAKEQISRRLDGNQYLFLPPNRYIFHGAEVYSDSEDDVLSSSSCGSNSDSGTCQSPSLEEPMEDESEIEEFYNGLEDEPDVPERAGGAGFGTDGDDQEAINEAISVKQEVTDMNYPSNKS
Assay: Mass spectrometry based SIRT1 deacetylase activation assay (acetylated p53-derived peptide substrate)
Format: biochemical
Details: 0.5 μM peptide substrate, 120 μM βNAD+, 10 nM SIRT1, 25 min at 25° C.; for EC1.5: read-out: EC1.5

Row | Structure (SMILES) | Fold Act. (percent maximum fold activation) | EC1.5 [nM]
1 | Cc1cc(NC(=O)c2cccc3[nH]c(-c4cnc5c(c4)OCCN5C)nc23)n(C)n1 [Compound 523] | B (Fold Activation <200%) | > 25000
2 | O=C(Nc1cccc(OC2CCNC2)c1)c1cccc2[nH]c(-c3cc(F)ccc3C(F)(F)F)nc12 (stereo not shown) [Compound 524] | A (Fold activation >200%) | < 1000
3 | O=C(Nc1cccc(OC2CCNCC2)c1)c1cccc2[nH]c(-c3cc(F)ccc3C(F)(F)F)nc12 [Compound 525] | A (Fold activation >200%) | < 1000
4 | O=C(Nc1cccc(OC2CCNC2)c1)c1cccc2[nH]c(-c3ccccc3C(F)(F)F)nc12 (stereo not shown) [Compound 526] | A (Fold activation >200%) | < 1000
5 | CN1CCN(c2cccc(-c3nc4c(C(=O)Nc5nccs5)cccc4[nH]3)c2)CC1 [Compound 527] | A (Fold activation >200%) | < 1000
6 | CN1CCN(c2cccc(-c3nc4c(C(=O)Nc5ccccn5)cccc4[nH]3)c2)CC1 [Compound 528] | A (Fold activation >200%) | < 1000
7 | CC(C)N1CCN(c2cccc(-c3nc4c(C(=O)Nc5nccs5)cccc4[nH]3)c2)CC1 [Compound 529] | A (Fold activation >200%) | < 1000
8 | CC(C)N1CCN(c2cccc(-c3nc4c(C(=O)Nc5ccccn5)cccc4[nH]3)c2)CC1 [Compound 530] | A (Fold activation >200%) | < 1000
9 | O=C(Nc1cccnc1)c1cccc2[nH]c(-c3cccc4c3OC(F)(F)O4)nc12 [Compound 531] | A (Fold activation >200%) | < 1000
10 | Cc1cnc(NC(=O)c2cccc3[nH]c(-c4cccc5c4OC(F)(F)O5)nc23)s1 [Compound 532] | A (Fold activation >200%) | < 1000
11 | O=C1COc2ccc(-c3nc4c(C(=O)Nc5cccnc5)cccc4[nH]3)cc2N1 [Compound 533] | B (Fold Activation <200%) | > 25000
12 | Cc1cnc(NC(=O)c2cccc3[nH]c(-c4ccc5c(c4)NC(=O)CO5)nc23)s1 [Compound 534] | A (Fold activation >200%) | < 1000
13 | O=C(Nc1ccccn1)c1cccc2[nH]c(-c3ccc(OC4CCNCC4)cc3)nc12 [Compound 535] | A (Fold activation >200%) | < 1000
14 | O=C(Nc1cccnc1)c1cccc2[nH]c(-c3ccc(OC4CCNCC4)cc3)nc12 [Compound 536] | A (Fold activation >200%) | 1000 to 25000
15 | Cc1cnc(NC(=O)c2cccc3[nH]c(-c4ccc(OC5CCNCC5)cc4)nc23)s1 [Compound 537] | A (Fold activation >200%) | < 1000
16 | O=C(Nc1ccccn1)c1cccc2[nH]c(-c3ccccc3OC3CCNCC3)nc12 [Compound 538] | A (Fold activation >200%) | 1000 to 25000
17 | O=C(Nc1cccnc1)c1cccc2[nH]c(-c3ccccc3OC3CCNCC3)nc12 [Compound 539] | A (Fold activation >200%) | 1000 to 25000
18 | O=C(Nc1ccccn1)c1cccc2[nH]c(-c3ccnc(N4CCCC4)c3)nc12 [Compound 540] | A (Fold activation >200%) | < 1000
19 | O=C(Nc1ccc(CN2CCCC2)cn1)c1cccc2[nH]c(-c3ccccc3C(F)(F)F)nc12 [Compound 541] | A (Fold activation >200%) | < 1000
20 | O=C(Nc1ccc(CN2CCCC2)cn1)c1cccc2[nH]c(-c3ccc(Cl)cc3C(F)(F)F)nc12 [Compound 542] | A (Fold activation >200%) | < 1000
21 | O=C(Nc1nccs1)c1cccc2[nH]c(-c3cc(F)cc(Cl)c3OCCN3CCOCC3)nc12 [Compound 543] | B (Fold Activation <200%) | 1000 to 25000
22 | O=C(Nc1ccccn1)c1cccc2[nH]c(-c3cc(F)cc(Cl)c3OCCN3CCOCC3)nc12 [Compound 544] | B (Fold Activation <200%) | 1000 to 25000

Row | Structure (SMILES) | Fold Act. (percent maximum fold activation) | EC1.5 [nM]
23 | Cc1ccc(OCCN2CCOCC2)c(-c2nc3c(C(=O)Nc4nccs4)cccc3[nH]2)c1 [Compound 545] | A (Fold activation >200%) | < 1000
24 | Cc1ccc(OCCN2CCOCC2)c(-c2nc3c(C(=O)Nc4ccccn4)cccc3[nH]2)c1 [Compound 546] | A (Fold activation >200%) | 1000 to 25000
25 | CC(C)(C)c1ccc(OCCN2CCOCC2)c(-c2nc3c(C(=O)Nc4nccs4)cccc3[nH]2)c1 [Compound 547] | B (Fold Activation <200%) | 1000 to 25000
26 | CC(C)(C)c1ccc(OCCN2CCOCC2)c(-c2nc3c(C(=O)Nc4ccccn4)cccc3[nH]2)c1 [Compound 548] | B (Fold Activation <200%) | < 1000
27 | Cc1cnc(NC(=O)c2cccc3[nH]c(-c4ccc(N5CCOCC5)cc4C(F)(F)F)nc23)s1 [Compound 549] | A (Fold activation >200%) | < 1000
28 | O=C(Nc1cccnn1)c1cccc2[nH]c(-c3ccc(N4CCOCC4)cc3C(F)(F)F)nc12 [Compound 550] | A (Fold activation >200%) | < 1000
29 | O=C(Nc1nccs1)c1cccc2[nH]c(-c3ccc(N4CCOCC4)cc3C(F)F)nc12 [Compound 551, 2-(2-(difluoromethyl)-4-morpholinophenyl)-N-(thiazol-2-yl)-1H-benzo[d]imidazole-4-carboxamide] | A (Fold activation >200%) | < 1000
30 | Cc1cnc(NC(=O)c2cccc3[nH]c(-c4ccc(N5CCOCC5)cc4C(F)F)nc23)s1 [Compound 552] | A (Fold activation >200%) | < 1000
31 | O=C(Nc1ccccn1)c1cccc2[nH]c(-c3ccc(N4CCOCC4)cc3C(F)F)nc12 [Compound 553] | A (Fold activation >200%) | < 1000
32 | O=C(Nc1cccnc1)c1cccc2[nH]c(-c3ccc(N4CCOCC4)cc3C(F)F)nc12 [Compound 554] | A (Fold activation >200%) | < 1000
33 | O=C(Nc1cccnn1)c1cccc2[nH]c(-c3ccc(N4CCOCC4)cc3C(F)F)nc12 [Compound 555] | A (Fold activation >200%) | < 1000
34 | O=C(Nc1nccs1)c1cccc2[nH]c(-c3ccc(OC[C@H](O)CO)cc3C(F)F)nc12 [Compound 556, (R)-2-(2-(difluoromethyl)-4-(2,3-dihydroxypropoxy)phenyl)-N-(thiazol-2-yl)-1H-benzo[d]imidazole-4-carboxamide] | A (Fold activation >200%) | < 1000
35 | Cc1cnc(NC(=O)c2cccc3[nH]c(-c4ccc(OCC(O)CO)cc4C(F)F)nc23)s1 (stereo not shown) [Compound 557] | A (Fold activation >200%) | < 1000
36 | O=C(Nc1ccccn1)c1cccc2[nH]c(-c3ccc(OCC(O)CO)cc3C(F)F)nc12 (stereo not shown) [Compound 558] | A (Fold activation >200%) | < 1000
37 | O=C(Nc1nccs1)c1cccc2[nH]c(-c3ccc(F)cc3C(F)F)nc12 [Compound 559, 2-(2-(difluoromethyl)-4-fluorophenyl)-N-(thiazol-2-yl)-1H-benzo[d]imidazole-4-carboxamide] | A (Fold activation >200%) | < 1000
38 | Cc1cnc(NC(=O)c2cccc3[nH]c(-c4ccc(F)cc4C(F)F)nc23)s1 [Compound 560] | A (Fold activation >200%) | < 1000
39 | O=C(Nc1ccccn1)c1cccc2[nH]c(-c3ccc(F)cc3C(F)F)nc12 [Compound 561] | A (Fold activation >200%) | < 1000
40 | O=C(Nc1nccs1)c1cccc2[nH]c(-c3ccc(Cl)cc3C(F)F)nc12 [Compound 562] | A (Fold activation >200%) | < 1000
41 | Cc1cnc(NC(=O)c2cccc3[nH]c(-c4ccc(Cl)cc4C(F)F)nc23)s1 [Compound 563] | A (Fold activation >200%) | < 1000
42 | O=C(Nc1ccccn1)c1cccc2[nH]c(-c3ccc(Cl)cc3C(F)F)nc12 [Compound 564] | A (Fold activation >200%) | 1000 to 25000
43 | O=C1COc2ccc(-c3nc4c(C(=O)Nc5ccccn5)cccc4[nH]3)cc2N1 [Compound 565] | B (Fold Activation <200%) | 1000 to 25000
44 | O=C(Nc1cccnc1)c1cccc2[nH]c(-c3cccc(OC4CCNCC4)c3)nc12 [Compound 567] | A (Fold activation >200%) | < 1000
